Data reported in PMC5904360, “Soluble N-Ethylmaleimide-Sensitive Factor Attachment Protein Receptor-Derived Peptides for Regulation of Mast Cell Degranulation” (Frontiers in Immunology, 2018).

How the values were obtained:
[1] = test system: RBL-2H3 mast cells; experiment: Degranulation assay, histamine release (enzyme immunoassay); type: cell-based, rat; details: for inhibition of histamine release: PTD-conjugated peptide without SLO (LY294002 as positive control), DNP-IgE sensitized, DNP-BSA stimulation, no A23187 pretreatment, three independent experiments (Figure 2C); for inhibition of histamine release after A23187 pretreatment: cells pretreated with A23187, sensitized with DNP-IgE, then PTD-conjugated peptide (Figure 4B)
[2] = test system: RBL-2H3 mast cells; experiment: Degranulation assay, β-hexosaminidase release; type: cell-based, rat; details: for reduction of β-hexosaminidase release: 10 µM PTD-fused peptide without SLO (LY294002 as positive control), DNP-BSA stimulation, no A23187 pretreatment, three independent experiments (Figure 2A gray bars, 2C); for inhibition of β-hexosaminidase release after A23187 pretreatment: cells pretreated with A23187, sensitized with DNP-IgE, then PTD-conjugated peptide (Figure 4B)
[3] = molecular target: T1, SN23-Syn4-Vp2 complex (Rattus norvegicus, UniProt O70377+P63045+Q08850); experiment: Co-immunoprecipitation of SNARE complexes in activated RBL-2H3 cells, anti-SNAP-23 blot; type: cell-based; details: peptides added to the medium after A23187 pretreatment; IP of Vp2, blot anti-SNAP-23 (Figure 4C)
T1 construct: Lysates of RBL-2H3 cells; endogenous in cells; host or cells: RBL-2H3 (ATCC CRL-2256)
T1 sequence (P63045 whole entry, one chain of several): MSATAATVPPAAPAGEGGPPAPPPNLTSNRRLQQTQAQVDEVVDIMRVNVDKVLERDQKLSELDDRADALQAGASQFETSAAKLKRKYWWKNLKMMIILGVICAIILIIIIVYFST
Method: (§1) Lysates of RBL-2H3 cells (0.5–1 × 10^6 cells), which were obtained by the addition of 1 mL lysis buffer (50 mM Tris–HCl, 150 mM NaCl, 1% Triton X-100™, 1 mM EDTA, pH 7.5) supplemented with a protease inhibitor cocktail (Calbiochem®, Merck Millipore, Billerica, MA, USA), were centrifuged at 13,000 g at 4°C to remove cell debris and precleared with 100 µL protein G Sepharose® (GE Healthcare) for 2 h at 4°C. The precleared lysates were incubated with antibodies against SNARE proteins (Syn4, SNAP-23, VAMP2, and VAMP8) for 2 h at 4°C for binding, and then the antibody–antigen complexes were precipitated by incubation with a protein G slurry overnight with constant shaking. After an extensive washing step with lysis buffer, an immunoblotting analysis was performed for the precipitates. The immunoprecipitated proteins and cell lysates were electrophoresed on 12% sodium dodecyl sulfate-polyacrylamide gel electrophoresis gels and then transferred to nitrocellulose blotting membranes (GE Healthcare). After blocking the membranes in TBST (10 mM Tris–HCl, 150 mM NaCl, and 0.05% Tween® 20, pH 8) containing 0.5% BSA and 5% skim milk for 1 h at room temperature, primary anti-SNAP-23 antibody (1:1,000 dilution) in TBST supplemented with 1% BSA and 0.01% sodium azide was added and incubated at 4°C overnight. The membranes were washed with TBST, treated with a horseradish peroxidase-conjugated secondary anti-mouse IgG antibody (A4416, Sigma-Aldrich), and visualized using enhanced chemiluminescence solution for the development of a luminescent signal.

[4] = molecular target: T2, SN23-Syn4-Vp8 complex (Rattus norvegicus, UniProt O70377+Q08850+Q9WUF4); experiment: as above; type: cell-based; details: peptides added to the medium after A23187 pretreatment; IP of Vp8, blot anti-SNAP-23 (Figure 4C)
T2 construct: Lysates of RBL-2H3 cells; endogenous in cells; host or cells: RBL-2H3 (ATCC CRL-2256)
T2 sequence (Q08850 1-298): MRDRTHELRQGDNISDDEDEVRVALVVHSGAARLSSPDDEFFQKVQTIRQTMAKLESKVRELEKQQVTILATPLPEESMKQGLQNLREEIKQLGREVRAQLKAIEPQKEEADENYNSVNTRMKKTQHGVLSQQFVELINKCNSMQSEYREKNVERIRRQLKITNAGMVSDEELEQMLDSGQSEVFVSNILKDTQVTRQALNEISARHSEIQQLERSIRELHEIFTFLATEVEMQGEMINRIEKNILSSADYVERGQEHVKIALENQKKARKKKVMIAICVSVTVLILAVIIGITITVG
T2 sequence (O70377 1-210): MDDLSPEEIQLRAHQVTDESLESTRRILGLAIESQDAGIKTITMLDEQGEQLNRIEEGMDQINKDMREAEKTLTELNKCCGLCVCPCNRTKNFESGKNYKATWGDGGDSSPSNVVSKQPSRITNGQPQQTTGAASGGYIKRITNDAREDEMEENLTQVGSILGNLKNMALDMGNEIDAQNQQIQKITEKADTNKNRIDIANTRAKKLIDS
T2 sequence (Q9WUF4 1-100): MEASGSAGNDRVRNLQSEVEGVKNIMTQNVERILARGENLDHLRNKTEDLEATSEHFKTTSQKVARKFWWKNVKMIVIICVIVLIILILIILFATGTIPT
Method: as §1

[5] = molecular target: T3, SN23-Syn4-Vp2 SNARE complex (Rattus norvegicus, UniProt O70377+P63045+Q08850); experiment: SNARE-driven membrane fusion (total lipid mixing) assay with proteoliposomes; type: biochemical
T3 construct: Syn4 (amino acids 1–298); SNAP-23 (amino acids 1–210); full-length VAMP2 (VpF, amino acids 1–116); GST (N, cleaved yes); made in house; host or cells: Escherichia coli Rosetta(DE3)pLysS
T3 sequence (P63045 whole entry, one chain of several, the tested form may be a part): as the sequence (P63045 whole entry, one chain of several) above
Source text: Total RNA was obtained from RBL-2H3 cells using TRIzol® Reagent (#15596026, Invitrogen, Carlsbad, CA, USA) and served as a template for cDNA synthesis with M-MLV reverse transcriptase (M1705, Promega, Madison, WI, USA) according to the manufacturer’s protocol. The cDNAs amplified for rat Syn4, SNAP-23, VAMP2, VAMP4, VAMP7, and VAMP8 using each primer pair ([4]), were cloned into the pGEX-4T 1 vector. The mast cell SNARE proteins [Syn4 (amino acids 1–298), SNAP-23 (amino acids 1–210), full-length VAMP2 (VpF, amino acids 1–116), VAMP4 (amino acids 1–141), and VAMP8 (amino acids 1–100)] were expressed in Escherichia coli Rosetta(DE3)pLysS (#70956, Novagen, Darmstadt, Germany) and purified as glutathione-S-transferase-tagged fusion proteins as reported previously ([8]).
To prepare the unilamellar liposomes, a 50-mM lipid mixture of palmitoyl-2-oleoylphosphatidylcholine (POPC) (#850457, Avanti Polar Lipids, Alabaster, AL, USA):1,2-dioleoyl-phosphatidylserine (DOPS) (#840035, Avanti Polar Lipids) at 65:35 mol% was dried in a glass tube under a gentle stream of nitrogen gas and then exposed to a vacuum overnight. The resultant lipid film was resuspended in dialysis buffer (25 mM HEPES and 100 mM KCl, pH 7.4) by vortexing, followed by an extrusion step with polycarbonate membrane filters having a pore size of 100 nm (#610005, Avanti Polar Lipids). To prepare proteoliposomes, binary T-SNAREs, which were pre-formed by mixing Syn4 and SNAP-23 at room temperature for 60 min, were incubated with 50 mM unilamellar liposomes for 15 min at the same temperature, resulting in a 50:1 lipid/protein molar ratio ([9]).
For the preparation of V-SNARE proteoliposomes, a 10-mM premixed lipid solution [POPC:DOPS:N-(7-nitro-2-1,3-benzoxadiazol-4-yl (NBD))-phosphatidylserine (#810198, Avanti Polar Lipids):[…] (#810150, Avanti Polar Lipids) = 62:35:1.5:1.5 (molar ratio)] was used for the preparation of fluorescent liposomes in the same manner as above. The prepared liposomes were then mixed with VAMP2 for 15 min at room temperature. The liposome/protein mixture was diluted twice to bring the concentration of n-octyl glucoside (O8001, Sigma-Aldrich) below the critical micelle concentration. After overnight dialysis against 1L dialysis buffer at 4°C to remove the detergent, SM-2 bio-beads (#1523920, Bio-Rad Laboratories, Hercules, CA, USA) were added to the sample to remove any remaining n-octyl glucoside. The solution was then centrifuged at 10,000 × g to remove the protein/lipid aggregates, and the final lipid concentrations of both the T- and V-liposomes were adjusted to 1 mM with a lipid-to-protein ratio of 50:1.
A total lipid mixing assay using the T- and V-liposomes was performed as described previously with minor modifications ([8]). […] The fusion was monitored using the dequenching of NBD fluorescence signal (excitation 465 nm/emission 530 nm). After at least 80 min of fusion, the maximum NBD signal was obtained by adding 0.1% Triton X-100™. All the lipid-mixing experiments were performed at 37°C.

[6] = test system: NC/Nga mice; experiment: DNCB-induced atopic dermatitis-like skin lesions; type: in vivo, mouse; details: for ear thickness: 0.3 and 3% peptide/day or 0.1% dexamethasone/day for 4 weeks, n = 10 per group (Figure 5D)
Source text: Seven-week-old NC/Nga mice were purchased from the Shizuoka Laboratory Animal Center (Shizuoka, Japan) and allowed to adapt to the environment for a week prior to use. The procedures for the induction of atopic dermatitis-like symptoms in mice using 1-chloro-2,4-dinitro-benzene (DNCB) have been well described previously ([27]). Briefly, the dorsal hair of the mice was shaved 2 days before DNCB administration. For the induction of atopic dermatitis, 1% DNCB was applied to the dorsal skin of the mice twice weekly for 7 days and then 0.2% DNCB was applied thrice weekly for 21 days. The mice were divided into the following […] treatment groups (n = 10 per group): 0.3 and 3% Vp2N/day, 0.3 and 3% Vp8N/day, 0.1% dexamethasone/day, and vehicle only, dorsally administered from 9 to 13 weeks of age. As a negative control for atopic dermatitis, NC/Nga mice that were not treated with DNCB were maintained under pathogen-free conditions. Laboratory animal breeding management was based on the “Guide for the Care and Use of Laboratory Animals,” and all experiments were approved by the Institutional Animal Care and Use Committees of Gyeonggi Institute of Science & Technology.

[7] = topical glucocorticosteroid; cited from earlier work

| Compound | inhibition of histamine release [1] | inhibition of histamine release after A23187 pretreatment [1] | reduction of β-hexosaminidase release [2] | inhibition of β-hexosaminidase release after A23187 pretreatment [2] | SNARE complex formation in cells (amount of SN23-Syn4-Vp2 complex) [3] | SNARE complex formation in cells (amount of SN23-Syn4-Vp8 complex) [4] | inhibition of mast cell degranulation with versus without A23187 pretreatment ([2]; PTD-conjugated peptides, read-outs β-hexosaminidase and histamine (Figure 4B)) | inhibition of membrane fusion (lipid mixing) ([5]; inhibitor applied to T-vesicles, T:V 9:1, 37°C, NBD dequenching, Vp2S/Vp8S at 10 µM, three independent experiments (Figure 3B-D)) | inhibition of membrane fusion, peptide added after preincubation ([5]; peptide added after preincubation of T- and V-liposomes at 4°C overnight (partially zippered SNAREs) (Figure 4A)) | inhibition of membrane fusion, peptide added before preincubation ([5]; peptide added before preincubation of T- and V-liposomes at 4°C overnight (Figure 4A)) | epidermal thickness ([6]; 0.3 and 3% peptide/day dorsally for 4 weeks, n = 10 per group, versus DNCB/vehicle-treated group (Figure 5C)) | atopic dermatitis features (acanthosis, hypergranulosis, hyperkeratosis) in hematoxylin and eosin-stained sections ([6]; 0.3 and 3% peptide/day dorsally, 9 to 13 weeks of age, n = 10 per group, compared with 0.1% dexamethasone/day group (Figure 5B)) | ear thickness [6] | side effect [7] |
| --- | --- | --- | --- | --- | --- | --- | --- | --- | --- | --- | --- | --- | --- | --- |
| O=c1cc(N2CCOCC2)oc2c(-c3ccccc3)cccc12 [LY294002, reference compound] | efficiently inhibited | efficiently inhibited | efficiently inhibited | efficiently inhibited | did not inhibit | did not inhibit | – | – | – | – | – | – | – | – |
| RRLQQTQAQVDEVVDIM [Vp2N, 17-mer peptide, N-terminal region of VAMP2 SNARE motif] | 43% | dramatically reduced | did not inhibit | did not inhibit | reduced | – | inhibited mast cell degranulation more efficiently than without pretreatment | efficiently inhibited | inhibitory activities significantly diminished | inhibited the membrane fusion driven only by their cognate SNARE complexes | significantly reduced | clearly alleviated to a similar extent | reduced | – |
| C[C@@H]1C[C@H]2[C@@H]3CCC4=CC(=O)C=C[C@]4(C)[C@@]3(F)[C@@H](O)C[C@]2(C)[C@@]1(O)C(=O)CO [Dexamethasone, dexamethasone, reference compound] | – | – | – | – | – | – | – | – | – | – | – | – | recovered the ear thickness to the normal range | skin thinning |
